# Measured values taken from article PMC9011347, “Small-Molecule Inhibitors Targeting Lipolysis in Human Adipocytes” (Journal of the American Chemical Society, 2022).
# How the values were obtained:
# [1] = molecular target: T1, mouse ATGL I69F/T146G double mutant (Mus musculus, UniProt Q8BJ56, I69F/T146G); test: TAG hydrolase assay, humanized mouse ATGL variants; assay type: biochemical; details: I69F/T146G double mutant of mouse ATGL
# T1 construct: host or cells: Expi293 cells, cell lysate
# Excerpt: The region between aa 60 and 146 of human and mouse ATGL comprises 12 nonidentical aa. We generated 3D homology models for the minimal active domain of mouse ATGL to obtain more detailed insight into the topology of the relevant region (Figure 5d). Based on this model, aa T101, C106, R109, N111, and S133 locate at peripheral (loop) regions (indicated in orange, Figure 5d). […] For all other nonidentical aa (indicated in magenta, Figure 5d), we generated variants with single aa substitutions. The humanized variants A60V, N68K, T93I, and C97F were inactivated by Ai but not NG-497 (Figure 5a).
# Figure 6 Identification of the molecular scaffold determining species selectivity. (a) Schematic view of mouse ATGL variants, which are sensitive to NG-497 inhibition. Humanized aa are indicated in red and nonidentical aa are indicated in dark blue. (b) Dose-dependent inhibition of the I69F/T146G double mutant, the I69F/T93I/C97F/T146G quadruple mutant, and human ATGL. (c) Dose-dependent inhibition of triple mutants I69F/T93I/T146G and I69F/C97F/T146G, and human ATGL. IC50 values are shown in the insets. […]
# Expression of recombinant ATGL constructs and preparation of cell lysates. […] Protein concentrations were determined using Bio-Rad protein assay (Bio-Rad 785, Bio-Rad Laboratories, Munich, Germany) using BSA as standard. […]
# [2] = molecular target: T2, human ATGL (Homo sapiens, UniProt Q96AD5); design: method as in PMID 28327588; details: cited from earlier work
# T2 construct: host or cells: Expi293 cells, crude lysate
# T2 sequence (Q96AD5 1-504): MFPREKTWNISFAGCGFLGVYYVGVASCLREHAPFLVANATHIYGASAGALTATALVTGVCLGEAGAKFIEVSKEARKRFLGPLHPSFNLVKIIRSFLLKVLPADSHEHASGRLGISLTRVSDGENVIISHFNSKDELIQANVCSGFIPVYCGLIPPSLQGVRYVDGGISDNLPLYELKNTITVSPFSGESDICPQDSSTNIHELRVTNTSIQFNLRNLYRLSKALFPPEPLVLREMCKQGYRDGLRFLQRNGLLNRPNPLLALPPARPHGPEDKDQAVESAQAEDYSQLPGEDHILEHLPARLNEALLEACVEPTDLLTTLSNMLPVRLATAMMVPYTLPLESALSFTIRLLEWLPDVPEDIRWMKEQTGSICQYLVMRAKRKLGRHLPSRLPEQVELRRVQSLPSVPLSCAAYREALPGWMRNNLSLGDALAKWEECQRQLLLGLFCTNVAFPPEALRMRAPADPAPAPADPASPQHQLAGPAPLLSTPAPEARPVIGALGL
# T1 sequence (Q8BJ56 whole entry I69F/T146G): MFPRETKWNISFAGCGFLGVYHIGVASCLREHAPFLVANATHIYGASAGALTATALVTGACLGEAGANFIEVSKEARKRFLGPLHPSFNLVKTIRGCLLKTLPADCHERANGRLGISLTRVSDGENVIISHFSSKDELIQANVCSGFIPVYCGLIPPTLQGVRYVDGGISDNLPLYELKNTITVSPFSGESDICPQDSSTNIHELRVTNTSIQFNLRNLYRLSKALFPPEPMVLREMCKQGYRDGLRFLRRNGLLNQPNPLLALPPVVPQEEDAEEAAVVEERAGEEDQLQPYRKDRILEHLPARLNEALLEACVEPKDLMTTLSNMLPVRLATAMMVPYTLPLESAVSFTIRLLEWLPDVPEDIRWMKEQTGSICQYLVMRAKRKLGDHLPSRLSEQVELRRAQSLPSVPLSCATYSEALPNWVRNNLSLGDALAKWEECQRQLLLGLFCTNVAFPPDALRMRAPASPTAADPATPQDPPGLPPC
SMILES,IC50 [1] [µM],efficacy against human ATGL [2]
CCOc1ccc(-c2cc(OC)cc(C(=O)OC(C)C)n2)cc1 [NG-497],9,
"CN(C)C(=O)Nc1cccc(-c2ccc(N(C)C)cc2)c1 [Atglistatin, reference compound]",,ineffective
